The values that follow come from ChEMBL document CHEMBL1141017, “Triterpene based compounds with potent anti-maturation activity against HIV-1” (Bioorg Med Chem Lett, 2008).

As a reminder, the pEC50 is the negative decadic logarithm of the EC50, by convention in mol/L. By pIC50 is commonly meant −log10 of the IC50, conventionally taken in molar units.

pEC50, pIC50: −log10 of the molar value.

A short description of data set [1]: Therapeutic index, ratio of TC50 for human MT4 cells to IC50 for HIV1 3B. It is filed as cell-based.
Data set [2] can be described thus: Metabolic stability in human liver microsomes assessed as compound remaining after 40 mins. Format: ADME, Microsome. Conditions: read-out: Stability. (In general: Microsomes from liver hold many membrane-bound enzymes, among them those of drug oxidation.)
Data set [3] is described as follows: Therapeutic index, ratio of TC50 for human MT4 cells to EC50 for HIV1 NL43. Format: cell-based.
A short description of data set [4]: Cytotoxicity against human MT4 cells after 4 days by cell viability assay. Format: cell-based. The conditions noted are these: read-out: TC50.
Data set [5] concerns Human immunodeficiency virus 1. Description: Antiviral activity against HIV1 NL4-3 infected in human MT4 cells assessed as cytoprotection against virus-induced cytopathic effect after 4 days by cell viability assay. It is filed as functional, organism-based. The conditions noted are these: Human immunodeficiency virus 1, NL4-3, MT4, 96 h. In general terms: Cytopathic effects are the visible damage that an infection or toxin causes in cultured cells.

A short description of data set [6]: Metabolic stability in Sprague-Dawley rat liver microsomes assessed as compound remaining after 40 mins. Format: ADME, Microsome. Conditions: read-out: Stability.
Data set [7] in a line: Cytotoxicity against human PBMC by cell viability assay. Format: cell-based. Conditions: read-out: TC50 (the source's name).
In data set [8] the test system is Human immunodeficiency virus 1. In words: Antiviral activity against HIV1 3B replication in human PBMC assessed as reverse transcriptase activity after 7 days. Format: functional, organism-based. Conditions: Human immunodeficiency virus 1, 3B, 168 h.

Take `C=C(C)[C@@H]1CC[C@]2(C(=O)NCc3ccc(C(=O)O)cc3)CC[C@]3(C)[C@H](CC[C@@H]4[C@@]5(C)CC[C@H](OC(=O)CC(C)(C)C(=O)O)C(C)(C)[C@@H]5CC[C@]43C)[C@@H]12`: the selectivity ratio in data set [1] and in data set [3] was over 400 each time. Besides, the remaining at 40 min in data set [2] and in data set [6] was 10% throughout. Besides, the CC50 at 96 h in data set [4] turned out to be 8900 nM. Further, the pEC50 in data set [5] was 6.78.

For the compound `C=C(C)[C@@H]1CC[C@]2(C(=O)NCc3ccc(C(=O)O)cn3)CC[C@]3(C)[C@H](CC[C@@H]4[C@@]5(C)CC[C@H](OC(=O)CC(C)(C)C(=O)O)C(C)(C)[C@@H]5CC[C@]43C)[C@@H]12`, the CC50 at 96 h in data set [4] is over 10000 nM. The pEC50 in data set [5] is 5.77.

In the case of `C=C(C)[C@@H]1CC[C@]2(C(=O)NCCCc3ccc(OC)cc3)CC[C@]3(C)[C@H](CC[C@@H]4[C@@]5(C)CC[C@H](OC(=O)CC(C)(C)C(=O)O)C(C)(C)[C@@H]5CC[C@]43C)[C@@H]12`, the CC50 at 96 h in data set [4] was found to be 10000 nM. Besides, the pEC50 in data set [5] was 7.10.

As to `C=C(C)[C@@H]1CC[C@]2(C(=O)NCc3ccccc3-c3ccccc3)CC[C@]3(C)[C@H](CC[C@@H]4[C@@]5(C)CC[C@H](OC(=O)CC(C)(C)C(=O)O)C(C)(C)[C@@H]5CC[C@]43C)[C@@H]12`, the selectivity ratio in data set [1] and in data set [3] was over 400 in each case. The CC50 at 96 h in data set [4] is over 10000 nM. Further, the pEC50 in data set [5] was 6.54.

In the case of `C=C(C)[C@@H]1CC[C@]2(C(=O)NCc3ccoc3)CC[C@]3(C)[C@H](CC[C@@H]4[C@@]5(C)CC[C@H](OC(=O)CC(C)(C)C(=O)O)C(C)(C)[C@@H]5CC[C@]43C)[C@@H]12`, the CC50 at 96 h in data set [4] is over 10000 nM. Moreover, the negative-log EC50 (pEC50) in data set [5] is 8.15. The CC50 in data set [7] was over 10000 nM. Further, the pIC50 in data set [8] was 8.15.

As for `C=C(C)[C@@H]1CC[C@]2(C(=O)N3Cc4ccccc4C3)CC[C@]3(C)[C@H](CC[C@@H]4[C@@]5(C)CC[C@H](OC(=O)CC(C)(C)C(=O)O)C(C)(C)[C@@H]5CC[C@]43C)[C@@H]12`, the CC50 at 96 h in data set [4] was over 10000 nM. Moreover, in data set [5], the pEC50 was 7.15.

Turning to `C=C(C)[C@@H]1CC[C@]2(C(=O)NCCCc3ccc(OC)c(OC)c3)CC[C@]3(C)[C@H](CC[C@@H]4[C@@]5(C)CC[C@H](OC(=O)CC(C)(C)C(=O)O)C(C)(C)[C@@H]5CC[C@]43C)[C@@H]12`, the CC50 at 96 h in data set [4] came out at 10000 nM. For the same compound, the pEC50 in data set [5] is 7.70.

Take `C=C(C)[C@@H]1CC[C@]2(C(=O)NCc3cccc(C(=O)O)c3)CC[C@]3(C)[C@H](CC[C@@H]4[C@@]5(C)CC[C@H](OC(=O)CC(C)(C)C(=O)O)C(C)(C)[C@@H]5CC[C@]43C)[C@@H]12`: the selectivity ratio in data set [1] and in data set [3] was over 400 throughout. For the same compound, the remaining at 40 min in data set [2] and in data set [6] was 10% each time. Further, the CC50 at 96 h in data set [4] stood at 7600 nM. Besides, the pEC50 in data set [5] was 6.32.

As to `C=C(C)[C@@H]1CC[C@]2(C(=O)NCc3cccnc3C(=O)O)CC[C@]3(C)[C@H](CC[C@@H]4[C@@]5(C)CC[C@H](OC(=O)CC(C)(C)C(=O)O)C(C)(C)[C@@H]5CC[C@]43C)[C@@H]12`, the CC50 at 96 h in data set [4] was over 10000 nM. Also, in data set [5], the pEC50 was 7.62. In addition, the CC50 in data set [7] is over 10000 nM. In addition, the pIC50 in data set [8] is 7.52.

In the case of `C=C(C)[C@@H]1CC[C@]2(C(=O)NCc3ccccc3C)CC[C@]3(C)[C@H](CC[C@@H]4[C@@]5(C)CC[C@H](OC(=O)CC(C)(C)C(=O)O)C(C)(C)[C@@H]5CC[C@]43C)[C@@H]12`, the selectivity ratio in data set [1] and in data set [3] was over 400 each time. In addition, the remaining at 40 min in data set [2] was 10%. The CC50 at 96 h in data set [4] is over 10000 nM. Besides, in data set [5], the pEC50 was 7.07.

As for `C=C(C)[C@@H]1CC[C@]2(C(=O)NCCc3cccc(OC)c3)CC[C@]3(C)[C@H](CC[C@@H]4[C@@]5(C)CC[C@H](OC(=O)CC(C)(C)C(=O)O)C(C)(C)[C@@H]5CC[C@]43C)[C@@H]12`, the CC50 at 96 h in data set [4] was over 10000 nM. The pEC50 in data set [5] was 7.40.

Consider `C=C(C)[C@@H]1CC[C@]2(C(=O)NCc3ccc4ccccc4n3)CC[C@]3(C)[C@H](CC[C@@H]4[C@@]5(C)CC[C@H](OC(=O)CC(C)(C)C(=O)O)C(C)(C)[C@@H]5CC[C@]43C)[C@@H]12`, for which, in data set [4], the CC50 at 96 h is over 10000 nM. Further, the negative logarithm of the EC50 (pEC50) in data set [5] was 7.59.

In the case of `C=C(C)[C@@H]1CC[C@]2(C(=O)NCc3nc4ccccc4[nH]3)CC[C@]3(C)[C@H](CC[C@@H]4[C@@]5(C)CC[C@H](OC(=O)CC(C)(C)C(=O)O)C(C)(C)[C@@H]5CC[C@]43C)[C@@H]12`, the CC50 at 96 h in data set [4] came to 8600 nM. Also, the negative-log EC50 (pEC50) in data set [5] is 8.30. Besides, in data set [7], the CC50 was over 10000 nM. Further, in data set [8], the pIC50 was 9.00.

On to `C=C(C)[C@@H]1CC[C@]2(C(=O)NCc3ccccc3C(=O)NCCNC(C)=O)CC[C@]3(C)[C@H](CC[C@@H]4[C@@]5(C)CC[C@H](OC(=O)CC(C)(C)C(=O)O)C(C)(C)[C@@H]5CC[C@]43C)[C@@H]12`, for which the selectivity ratio in data set [1] and in data set [3] was over 400 each time. The CC50 at 96 h in data set [4] turned out to be 9300 nM. For the same compound, the pEC50 in data set [5] was 8.30.

In the case of `C=C(C)[C@@H]1CC[C@]2(C(=O)NCc3ccc(C(=O)NCCNC(C)=O)cc3)CC[C@]3(C)[C@H](CC[C@@H]4[C@@]5(C)CC[C@H](OC(=O)CC(C)(C)C(=O)O)C(C)(C)[C@@H]5CC[C@]43C)[C@@H]12`, the selectivity ratio in data set [1] and in data set [3] was over 400 throughout. In data set [4], the CC50 at 96 h came to 10000 nM. The pEC50 in data set [5] is 7.52.

As for `C=C(C)[C@@H]1CC[C@]2(C(=O)N[C@@H](Cc3ccc(OC)cc3)C(=O)O)CC[C@]3(C)[C@H](CC[C@@H]4[C@@]5(C)CC[C@H](OC(=O)CC(C)(C)C(=O)O)C(C)(C)[C@@H]5CC[C@]43C)[C@@H]12`, in data set [4], the CC50 at 96 h came to 5600 nM. Besides, the pEC50 in data set [5] is 8.05.

For `C=C(C)[C@@H]1CC[C@]2(C(=O)N[C@H]3CCc4ccccc43)CC[C@]3(C)[C@H](CC[C@@H]4[C@@]5(C)CC[C@H](OC(=O)CC(C)(C)C(=O)O)C(C)(C)[C@@H]5CC[C@]43C)[C@@H]12`, the CC50 at 96 h in data set [4] is over 10000 nM. The pEC50 in data set [5] is 6.70.

Take `C=C(C)[C@@H]1CC[C@]2(C(=O)N[C@H]3CCCc4ccccc43)CC[C@]3(C)[C@H](CC[C@@H]4[C@@]5(C)CC[C@H](OC(=O)CC(C)(C)C(=O)O)C(C)(C)[C@@H]5CC[C@]43C)[C@@H]12`: in data set [4], the CC50 at 96 h was over 10000 nM. The pEC50 in data set [5] was 6.74.

In the case of `C=C(C)[C@@H]1CC[C@]2(C(=O)NCc3cccc(C(=O)NCCNC(C)=O)c3)CC[C@]3(C)[C@H](CC[C@@H]4[C@@]5(C)CC[C@H](OC(=O)CC(C)(C)C(=O)O)C(C)(C)[C@@H]5CC[C@]43C)[C@@H]12`, the selectivity ratio in data set [1] and in data set [3] was over 400 each time. For the same compound, the CC50 at 96 h in data set [4] was found to be 10000 nM. For the same compound, in data set [5], the pEC50 is 8.00. Further, the remaining at 40 min in data set [6] worked out at 10%.

As to `C=C(C)[C@@H]1CC[C@]2(C(=O)N[C@H](C(=O)O)c3ccc(OC)cc3)CC[C@]3(C)[C@H](CC[C@@H]4[C@@]5(C)CC[C@H](OC(=O)CC(C)(C)C(=O)O)C(C)(C)[C@@H]5CC[C@]43C)[C@@H]12`, the CC50 at 96 h in data set [4] came to 6800 nM. Besides, the pEC50 in data set [5] is 7.40.

In the case of `C=C(C)[C@@H]1CC[C@]2(C(=O)NCc3ccc(N(C)C)cc3)CC[C@]3(C)[C@H](CC[C@@H]4[C@@]5(C)CC[C@H](OC(=O)CC(C)(C)C(=O)O)C(C)(C)[C@@H]5CC[C@]43C)[C@@H]12`, the selectivity ratio in data set [1] and in data set [3] was over 400 each time. Besides, the remaining at 40 min in data set [2] and in data set [6] was 10% throughout. The CC50 at 96 h in data set [4] is 1000 nM. The pEC50 in data set [5] was 7.52.

For `C=C(C)[C@@H]1CC[C@]2(C(=O)NCc3ncccc3C(=O)O)CC[C@]3(C)[C@H](CC[C@@H]4[C@@]5(C)CC[C@H](OC(=O)CC(C)(C)C(=O)O)C(C)(C)[C@@H]5CC[C@]43C)[C@@H]12`, in data set [4], the CC50 at 96 h is over 10000 nM. Moreover, the pEC50 in data set [5] is 6.89.

In the case of `C=C(C)[C@@H]1CC[C@]2(C(=O)NCCc3ccc(C(=O)O)cc3)CC[C@]3(C)[C@H](CC[C@@H]4[C@@]5(C)CC[C@H](OC(=O)CC(C)(C)C(=O)O)C(C)(C)[C@@H]5CC[C@]43C)[C@@H]12`, in data set [4], the CC50 at 96 h worked out at 1000 nM. The pEC50 in data set [5] is 6.00.

As to `C=C(C)[C@@H]1CC[C@]2(C(=O)NCc3nc4ccccc4s3)CC[C@]3(C)[C@H](CC[C@@H]4[C@@]5(C)CC[C@H](OC(=O)CC(C)(C)C(=O)O)C(C)(C)[C@@H]5CC[C@]43C)[C@@H]12`, the CC50 at 96 h in data set [4] worked out at 6800 nM. Also, in data set [5], the pEC50 is 7.48. In data set [7], the CC50 was over 10000 nM. In data set [8], the pIC50 was 8.52.

Regarding `C=C(C)[C@@H]1CC[C@]2(C(=O)NCc3ccc(-c4ccccc4)cc3)CC[C@]3(C)[C@H](CC[C@@H]4[C@@]5(C)CC[C@H](OC(=O)CC(C)(C)C(=O)O)C(C)(C)[C@@H]5CC[C@]43C)[C@@H]12`, the selectivity ratio in data set [1] and in data set [3] was over 400 each time. In data set [2], the remaining at 40 min is 10%. For the same compound, in data set [4], the CC50 at 96 h is over 10000 nM. In data set [5], the pEC50 was 6.57.
